This note sets out measurements from patent publication US6124328A, “Methods and compositions for stimulating neurite growth” (Vertex Pharmaceuticals Incorporated, priority 1997, dated 2000).

Molecules are shown by their SMILES. Where only a bound is given, the exact number is not on record here.

For the first experiment, the target named is FKBP12 (Homo sapiens, UniProt P62942). Description: FKBP12 Binding Assay: inhibition of FKBP rotomase activity (cis-N-succinyl-Ala-Ala-Pro-Phe-p-nitroanilide / chymotrypsin), apparent Ki. It counts as biochemical. Particulars: Table 1a, formula Ia, compound 0.1 nM-10 μM. From the text: Preferably, the assay measures inhibition of FKBP12 rotomase activity. Such an assay has also been described by M. W. Harding et al., supra and by J. J. Siekierka et al., supra. In this assay the isomerization of an artificial substrate--N-succinyl-Ala-Ala-Pro-Phe-p-nitroanilide--is followed spectrophotometrically. The assay includes the cis form of the substrate, FKBP12, the inhibitor and chymotrypsin. Chymotrypsin is able to cleave p-nitroanilide from the trans form of the substrate, but not the cis form. Release of p-nitroanilide is measured.
Sequence of FKBP12 (P62942 whole entry): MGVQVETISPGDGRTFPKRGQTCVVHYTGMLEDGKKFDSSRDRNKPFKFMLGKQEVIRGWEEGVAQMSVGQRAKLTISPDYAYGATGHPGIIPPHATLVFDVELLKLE
In this assay various quantities of FKBP12 binding compound (0.1 nM-10 μM) were added to cis-N-succinyl-Ala-Ala-Pro-Phe-p-nitroanilide in the presence of FKBP12 and chymotrypsin. FKBP12 converts the cis form of the substrate to the trans form. This allows chymotrypsin to cleave p-nitroanilide from the substrate. Release of p-nitroanilide was measured spectrophotometrically.
As to `COc1cc(C(=O)C(=O)N2CCCC[C@H]2C(=O)OCCCC(C)C2CCCCC2)cc(OC)c1OC` (stereo partly shown), the Ki is 0.09 µM.

Turning to `O=C(Cc1ccccc1[N+](=O)[O-])C(=O)N1CCCC[C@H]1C(=O)OCc1ccccc1` [Ia B=Benzyl, D=2-Nitrobenzyl, n=2], the Ki amounted to 26 µM.

The same experiment, now with this note: Table 1c, formula Ic, compound 0.1 nM-10 μM.
Take `CCOC(=O)CN(Cc1ccccc1)C(=O)C(=O)OC`: the Ki is greater than 1200 µM.

The same experiment, now with this note: Table 2, formula II', compound 0.1 nM-10 μM.
With `COc1cc(C(=O)C(=O)N2CCCC[C@H]2C(=O)OC(c2ccccc2)c2cccc(Oc3ccccc3)c2)cc(OC)c1OC` (stereo partly shown) [compound 5], the Ki amounted to 4 µM.

Regarding `COc1ccc(CCC(CCCc2ccccc2)OC(=O)[C@@H]2CCCCN2C(=O)C(=O)c2cc(OC)c(OC)c(OC)c2)cc1` (stereo partly shown) [compound 13], the Ki was 0.0035 µM.

For `COc1cc(C(=O)C(=O)N2CCCC[C@H]2C(=O)OC(CCCc2ccccc2)CCCn2cnc3ccccc32)cc(OC)c1OC` (stereo partly shown) [compound 15], the Ki amounted to 0.005 µM.

As to `COc1cc(C(=O)C(=O)N2CCCC[C@H]2C(=O)OC(CCCc2ccccc2)CCCc2ccccn2)cc(OC)c1OC` (stereo partly shown) [compound 20], the Ki worked out at 0.0065 µM.

In the case of `COc1cc(C(=O)C(=O)N2CCCC[C@H]2C(=O)OC(CCCc2ccccc2)CCCc2ccc[n+]([O-])c2)cc(OC)c1OC` (stereo partly shown) [compound 22], the Ki was determined as 0.007 µM.

Consider `COc1cc(C(=O)C(=O)N2CCCC[C@H]2C(=O)OC(CCCc2ccccc2)CCCn2ccc3cccnc32)cc(OC)c1OC` (stereo partly shown) [compound 23], for which the Ki stood at 0.009 µM.

Consider `COc1cc(C(=O)C(=O)N2CCCC[C@H]2C(=O)OC(CCCc2ccccc2)CCCn2cnc3cncnc32)cc(OC)c1OC` (stereo partly shown) [compound 25], for which the Ki stood at 0.0022 µM.

Consider `COc1cc(C(=O)C(=O)N2CCCC[C@H]2C(=O)OC(CCCc2ccccc2)CCC(C)c2ccccc2)cc(OC)c1OC` (stereo partly shown) [compound 32], for which the Ki was determined as 0.02 µM.

In the case of `C=CCOc1ccccc1C(CCCc1ccccc1)OC(=O)[C@@H]1CCCCN1C(=O)C(=O)c1cc(OC)c(OC)c(OC)c1` (stereo partly shown) [compound 34], the Ki was found to be 0.15 µM.

`COc1cc(C(=O)C(=O)N2CCCC[C@H]2C(=O)OC(CCCc2ccccc2)c2cccc(CO)c2)cc(OC)c1OC` (stereo partly shown) [compound 37]: the Ki is 0.0068 µM.

For the molecule `COc1cc(C(=O)C(=O)N2CCCC[C@H]2C(=O)OC(CCCc2ccccc2)CCCc2ccc(C(=O)N(C)C)cc2)cc(OC)c1OC` (stereo partly shown) [compound 43], the Ki was determined as 0.005 µM.

As for `COc1cc(C(=O)C(=O)N2CCCC[C@H]2C(=O)OC(CCCc2ccccc2)CCCc2ccc(C(=O)N3CCOCC3)cc2)cc(OC)c1OC` (stereo partly shown) [compound 44], the Ki stood at 0.006 µM.

In the case of `C=CCOCCCCC(CCCc1ccccc1)OC(=O)[C@@H]1CCCCN1C(=O)C(=O)c1cc(OC)c(OC)c(OC)c1` (stereo partly shown) [compound 45], the Ki is 0.007 µM.

In the case of `C=CCOCC#CC(CCCc1ccccc1)OC(=O)[C@@H]1CCCCN1C(=O)C(=O)c1cc(OC)c(OC)c(OC)c1` (stereo partly shown) [compound 46], the Ki is 0.005 µM.

Take `COc1cc(C(=O)C(=O)N2CCCC[C@H]2C(=O)OC(CCCc2ccccc2)CCCc2ccc(C(=O)N3CCCCC3)cc2)cc(OC)c1OC` (stereo partly shown) [compound 47]: the Ki came to 0.007 µM.

For the molecule `COc1cc(C(=O)C(=O)N2CCCC[C@H]2C(=O)OC(C)c2cc(OCc3ccccc3)cc(OCc3ccccc3)c2)cc(OC)c1OC` (stereo partly shown) [compound 49], the Ki amounted to 3.4 µM.

For the molecule `C=CCOCCC(CCCc1ccccc1)OC(=O)[C@@H]1CCCCN1C(=O)C(=O)c1cc(OC)c(OC)c(OC)c1` (stereo partly shown) [compound 50], the Ki came to 0.011 µM.

Consider `C=CCOC/C=C/C(CCCc1ccccc1)OC(=O)[C@@H]1CCCCN1C(=O)C(=O)c1cc(OC)c(OC)c(OC)c1` (stereo partly shown) [compound 51], for which the Ki was 0.0028 µM.

In the case of `COc1cc(C(=O)C(=O)N2CCCC[C@H]2C(=O)OC(CCCc2ccccc2)CCCc2cccc(C(=O)N3CCOCC3)c2)cc(OC)c1OC` (stereo partly shown) [compound 52], the Ki turned out to be 0.0015 µM.

As for `COc1cc(C(=O)C(=O)N2CCCC[C@H]2C(=O)OC(CCCc2ccccc2)CCCc2ccc(C(=O)NCc3ccccc3)cc2)cc(OC)c1OC` (stereo partly shown) [compound 54], the Ki stood at 0.0016 µM.

For the molecule `COc1cc(C(=O)C(=O)N2CCCC[C@H]2C(=O)OC(CCCc2ccccc2)CCCc2ccc(C(=O)N3CCSCC3)cc2)cc(OC)c1OC` (stereo partly shown) [compound 55], the Ki worked out at 0.0024 µM.

For `COc1cc(C(=O)C(=O)N2CCCC[C@H]2C(=O)OC(CCCc2ccccc2)c2cccc(C(=O)N3CCOCC3)c2)cc(OC)c1OC` (stereo partly shown) [compound 56], the Ki worked out at 0.0061 µM.

With `COc1cc(C(=O)C(=O)N2CCCC[C@H]2C(=O)OC(CCCc2ccccc2)CCCc2ccc(C(=O)N3CCN(C)CC3)cc2)cc(OC)c1OC` (stereo partly shown) [compound 57], the Ki stood at 0.0056 µM.

For `COc1cc(C(=O)C(=O)N2CCCC[C@H]2C(=O)OC(CCCc2ccccc2)CCCc2ccc(C(=O)N3CCN(Cc4ccccc4)CC3)cc2)cc(OC)c1OC` (stereo partly shown) [compound 58], the Ki amounted to 0.03 µM.

With `COc1cc(C(=O)C(=O)N2CCCC[C@H]2C(=O)OC(CCCc2ccccc2)CCCc2cccc(C(=O)NCc3ccccc3)c2)cc(OC)c1OC` (stereo partly shown) [compound 59], the Ki amounted to 0.04 µM.

Turning to `COc1cc(C(=O)C(=O)N2CCCC[C@H]2C(=O)OC(CCCc2ccccc2)CCCc2ccc(C(=O)Nc3ccccn3)cc2)cc(OC)c1OC` (stereo partly shown) [compound 60], the Ki was 0.002 µM.

As to `COc1cc(C(=O)C(=O)N2CCCC[C@H]2C(=O)OC(CCCc2cccnc2)c2cccnc2)cc(OC)c1OC` (stereo partly shown) [compound 61], the Ki was found to be 0.01 µM.

Turning to `C=CCC(OC(=O)[C@@H]1CCCCN1C(=O)C(=O)c1cc(OC)c(OC)c(OC)c1)c1ccc(OCc2ccncc2)c(OCc2ccncc2)c1` (stereo partly shown) [compound 62], the Ki came out at 0.062 µM.

Take `COc1cc(C(=O)C(=O)N2CCCC[C@H]2C(=O)OC(c2cccnc2)c2cccc(OCc3ccncc3)c2)cc(OC)c1OC` (stereo partly shown) [compound 63]: the Ki came to 0.013 µM.

On to `COc1cc(C(=O)C(=O)N2CCCC[C@H]2C(=O)OC(CCCc2ccccc2)c2cccc(OCc3ccncc3)c2)cc(OC)c1OC` (stereo partly shown) [compound 64], for which the Ki was 0.0014 µM.

With `COc1cc(C(=O)C(=O)N2CCCC[C@H]2C(=O)OC(CCCc2ccccc2)c2ccc(OCc3ccncc3)c(OCc3ccncc3)c2)cc(OC)c1OC` (stereo partly shown) [compound 65], the Ki turned out to be 0.0041 µM.

`COc1cc(C(=O)C(=O)N2CCCC[C@H]2C(=O)OC(C)c2ccc(OCc3ccncc3)c(OCc3ccncc3)c2)cc(OC)c1OC` (stereo partly shown) [compound 66]: the Ki was 0.035 µM.

For the molecule `COc1cc(C(=O)C(=O)N2CCCC[C@H]2C(=O)OC(CCCc2ccccc2)c2ccc(OCc3ccncc3)c(OCc3ccncc3)c2OCc2ccncc2)cc(OC)c1OC` (stereo partly shown) [compound 67], the Ki was 0.046 µM.

With `COc1cc(C(=O)C(=O)N2CCCC[C@H]2C(=O)OC(CCCc2ccccc2)c2ccc(OCc3ccncc3)c(C(=O)N3CCOCC3)c2)cc(OC)c1OC` (stereo partly shown) [compound 68], the Ki came out at 0.002 µM.

Take `COc1cc(C(=O)C(=O)N2CCCC[C@H]2C(=O)OC(C)c2cc(OCc3ccncc3)c(OCc3ccncc3)c(OCc3ccncc3)c2)cc(OC)c1OC` (stereo partly shown) [compound 69]: the Ki turned out to be 0.036 µM.

Turning to `COc1cc(C(=O)C(=O)N2CCCC[C@H]2C(=O)OC(CCCc2ccccc2)c2cc(OCc3ccncc3)c(OCc3ccncc3)c(OCc3ccncc3)c2)cc(OC)c1OC` (stereo partly shown) [compound 70], the Ki was found to be 0.005 µM.

Turning to `COc1cc(C(=O)C(=O)N2CCCC[C@H]2C(=O)OC(C)c2cc(OCc3ccncc3)cc(OCc3ccncc3)c2)cc(OC)c1OC` (stereo partly shown) [compound 71], the Ki is 0.014 µM.

With `COc1cc(C(=O)C(=O)N2CCCC[C@H]2C(=O)OC(C)c2cc(OCc3ccncc3)cc(OCc3ccncc3)c2)cc(OC)c1OC` (stereo partly shown) [compound 72], the Ki is 0.012 µM.

Consider `COc1cc(C(=O)C(=O)N2CCCC[C@H]2C(=O)OC(C)c2cc(OCc3ccncc3)c(C)c(OCc3ccncc3)c2)cc(OC)c1OC` (stereo partly shown) [compound 73], for which the Ki was 0.036 µM.

For the molecule `CCC(OC(=O)[C@@H]1CCCCN1C(=O)C(=O)c1cc(OC)c(OC)c(OC)c1)c1cc(OCc2ccncc2)c(OCc2ccncc2)c(OCc2ccncc2)c1` (stereo partly shown) [compound 74], the Ki was 0.018 µM.

With `CCC(OC(=O)[C@@H]1CCCCN1C(=O)C(=O)c1cc(OC)c(OC)c(OC)c1)c1cc(OCc2ccncc2)c(OCc2ccncc2)c(OCc2ccncc2)c1` (stereo partly shown) [compound 75], the Ki was 0.012 µM.

`C=CCC(OC(=O)[C@@H]1CCCCN1C(=O)C(=O)c1cc(OC)c(OC)c(OC)c1)c1cc(OCc2ccncc2)c(OCc2ccncc2)c(OCc2ccncc2)c1` (stereo partly shown) [compound 76]: the Ki was found to be 0.014 µM.

With `C=CC(OC(=O)[C@@H]1CCCCN1C(=O)C(=O)c1cc(OC)c(OC)c(OC)c1)c1cc(OCc2ccncc2)c(OCc2ccncc2)c(OCc2ccncc2)c1` (stereo partly shown) [compound 78], the Ki turned out to be 0.073 µM.

Take `C=CC(OC(=O)[C@@H]1CCCCN1C(=O)C(=O)c1cc(OC)c(OC)c(OC)c1)c1cc(OCc2ccncc2)c(OCc2ccncc2)c(OCc2ccncc2)c1` (stereo partly shown) [compound 79]: the Ki is 0.0023 µM.

`CCCC(OC(=O)[C@@H]1CCCCN1C(=O)C(=O)c1cc(OC)c(OC)c(OC)c1)c1cc(OCc2ccncc2)c(OCc2ccncc2)c(OCc2ccncc2)c1` (stereo partly shown) [compound 80]: the Ki is 0.017 µM.

`CCCC(OC(=O)[C@@H]1CCCCN1C(=O)C(=O)c1cc(OC)c(OC)c(OC)c1)c1cc(OCc2ccncc2)c(OCc2ccncc2)c(OCc2ccncc2)c1` (stereo partly shown) [compound 81]: the Ki was determined as 0.005 µM.

As for `COc1cc(C(=O)C(=O)N2CCCC[C@H]2C(=O)OC(C)c2cc(OCc3ccsc3)c(OCc3ccsc3)c(OCc3ccsc3)c2)cc(OC)c1OC` (stereo partly shown) [compound 82], the Ki was greater than 5 µM.

Consider `COc1cc(C(=O)C(=O)N2CCCC[C@H]2C(=O)OC(C)c2cc(OCc3ccsc3)c(OCc3ccsc3)c(OCc3ccsc3)c2)cc(OC)c1OC` (stereo partly shown) [compound 83], for which the Ki was greater than 1 µM.

Take `COc1cc(C(=O)C(=O)N2CCCC[C@H]2C(=O)OC(C)c2ccc(OCc3ccncc3)c(OCc3ccncc3)c2OC(C)C)cc(OC)c1OC` (stereo partly shown) [compound 84]: the Ki is 0.054 µM.
